# Reference: the supplement of paper PMC10307832
# How the values were obtained:
# Assay in all cases: relative viability (nuclei count vs DMSO), 5 days (fraction); higher = more cells survive
# [1] = compound: O=C(O)c1ccc2c(c1)nc(Nc1cccc(Cl)c1)c1ccncc12 [Silmitasertib] + CC(=O)Nc1cccc(-n2c(=O)n(C3CC3)c(=O)c3c(Nc4ccc(I)cc4F)n(C)c(=O)c(C)c32)c1 [Trametinib] (partner 0.02 µM)
# Summary of the method: (§1)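 Lung cancer cell lines in 1536-well plates got either a single drug or a fixed anchor-drug dose together with five library-drug doses (not always all listed) in √10 steps, by pin tool, on the day after seeding. Nuclei were counted after 5 days, and relative viability is the treated-to-vehicle ratio of nuclei counts. Values are medians of duplicate plates.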
# [2] = compound: O=C(O)c1ccc2c(c1)nc(Nc1cccc(Cl)c1)c1ccncc12 [Silmitasertib] + CC1(C)CCC(c2ccc(Cl)cc2)=C(CN2CCN(c3ccc(C(=O)NS(=O)(=O)c4ccc(N[C@H](CCN5CCOCC5)CSc5ccccc5)c(S(=O)(=O)C(F)(F)F)c4)cc3)CC2)C1 [Navitoclax] (partner 0.5 µM)
# Summary of the method: as §1
# Silmitasertib + OSI-027 = compound: O=C(O)c1ccc2c(c1)nc(Nc1cccc(Cl)c1)c1ccncc12 [Silmitasertib] + COc1cccc2cc(-c3nc([C@H]4CC[C@H](C(=O)O)CC4)n4ncnc(N)c34)[nH]c12 [OSI-027] (partner 0.5 µM)
# Summary of the method: as §1
# [3] = compound: O=C(O)c1ccc2c(c1)nc(Nc1cccc(Cl)c1)c1ccncc12 [Silmitasertib] + Cc1cc(Nc2cc(N3CCN(C)CC3)nc(Sc3ccc(NC(=O)C4CC4)cc3)n2)n[nH]1 [Tozasertib] (partner 0.1 µM)
# Summary of the method: as §1
# Silmitasertib + Olaparib = compound: O=C(O)c1ccc2c(c1)nc(Nc1cccc(Cl)c1)c1ccncc12 [Silmitasertib] + O=C(c1cc(Cc2n[nH]c(=O)c3ccccc23)ccc1F)N1CCN(C(=O)C2CC2)CC1 [Olaparib] (partner 8 µM)
# Summary of the method: as §1
Cell Line,relative viability ([1]; first compound 0.04 µM),relative viability ([1]; first compound 1.265 µM),relative viability ([1]; first compound 4 µM),relative viability ([2]; first compound 0.04 µM),relative viability ([2]; first compound 1.265 µM),relative viability ([2]; first compound 4 µM),relative viability (Silmitasertib + OSI-027; first compound 0.04 µM),relative viability (Silmitasertib + OSI-027; first compound 1.265 µM),relative viability (Silmitasertib + OSI-027; first compound 4 µM),relative viability ([3]; first compound 0.04 µM),relative viability ([3]; first compound 1.265 µM),relative viability ([3]; first compound 4 µM),relative viability (Silmitasertib + Olaparib; first compound 0.04 µM),relative viability (Silmitasertib + Olaparib; first compound 1.265 µM),relative viability (Silmitasertib + Olaparib; first compound 4 µM),relative viability ([1]; first compound 0.4 µM),relative viability ([2]; first compound 0.4 µM),relative viability (Silmitasertib + OSI-027; first compound 0.4 µM),relative viability ([3]; first compound 0.4 µM),relative viability (Silmitasertib + Olaparib; first compound 0.4 µM)
NCI-H1355,0.454,0.393,0.367,1.04,0.965,0.771,0.438,0.371,0.345,0.545,0.528,0.46,0.727,0.698,0.615,–,–,–,–,–
NCI-H1395,1.07,1.03,1.14,1.2,1.1,0.947,0.731,0.591,0.477,0.742,0.68,0.623,0.463,0.459,0.469,0.809,0.816,0.552,0.559,0.461
NCI-H1437,0.493,0.353,0.274,1.11,0.906,0.828,0.946,0.598,0.457,0.397,0.3,0.241,0.648,0.521,0.483,0.466,–,0.623,0.406,0.645
NCI-H1650,0.769,0.428,0.256,1.38,0.695,0.414,0.99,0.496,0.203,0.466,0.272,0.235,0.833,0.646,0.493,0.56,1.24,0.511,0.517,0.798
NCI-H1651,0.881,0.84,0.848,1.01,1.09,1.02,0.822,0.642,0.704,0.785,0.541,0.443,0.171,0.184,0.186,0.714,1.06,0.667,0.556,0.139
NCI-H1666,0.915,0.876,0.752,1.02,0.663,0.492,0.812,0.652,0.615,0.734,0.543,0.446,0.713,0.566,0.61,0.728,0.853,0.732,0.626,0.577
NCI-H1734,0.737,0.63,0.581,0.884,0.781,0.737,0.626,0.593,0.497,0.275,0.274,0.243,0.607,0.583,0.549,0.664,–,0.522,0.261,0.373
NCI-H1755,0.74,0.826,0.864,1.04,0.991,0.959,0.726,0.728,0.721,0.572,0.623,0.714,0.892,0.858,1.01,0.779,0.942,0.764,0.519,0.783
